The values below are quoted from earlier work in paper PMC7113793 (Antiviral Research, 2017).

The target of series [1] is Giardia lamblia carbamate kinase.
Series [2] concerns the target Citrullus vulgaris urease. The conditions noted are these: read-out: Kis.
A further series deals with aldehyde dehydrogenase. The settings on record: in vivo.

In the case of `CCN(CC)C(=S)SSC(=S)N(CC)CC` [disulfiram], the IC50 in series [1] is 0.6 to 1.4 µM. For the same compound, the Ki in series [2] is 67.6 µM. Also, in the series with aldehyde dehydrogenase, the “enzyme inhibition as compared to the activity of the control” value is reported as 77%.

Take `O=C(O)CN(CCN(CC(=O)O)CC(=O)O)CC(=O)O` [EDTA]: the “loss of PL^pro activity” value with PL^pro is recorded as 62%.

By IC50 is commonly meant the concentration that inhibits the measured activity by half.
